As a reminder, the IC50 is the concentration that inhibits the measured activity by half. Higher therefore signals a need for much substance.

Structures are written as SMILES.

Seven molecules from ChEMBL document CHEMBL1177740, “Steroidal saponins from two species of Dracaena” (J Nat Prod, 2010) can be followed below.

One assay has as its system HCT-116. The experiment in a line: Cytotoxicity against human HCT116 cells by MTT assay. It counts as functional, cell-based. A general note: Formazan colour is commonly taken as a measure of viable cells.
In a further assay the test system is HT-29. The experiment in a line: Cytotoxicity against human HT-29 cells by MTT assay. It counts as functional, cell-based.

Regarding `C=C1CO[C@@]2(O[C@H]3C[C@H]4[C@@H]5CC=C6C[C@@H](O)C[C@@H](O[C@@H]7OC[C@H](O)[C@H](O[C@@H]8OC[C@@H](O)[C@H](O)[C@H]8O[C@@H]8O[C@@H](C)[C@H](O)[C@@H](O)[C@H]8O)[C@H]7O)[C@]6(C)[C@H]5CC[C@]4(C)[C@H]3[C@@H]2C)[C@@H](O)[C@H]1O[C@@H]1OC[C@H](O)[C@H](O)[C@H]1O`, the IC50 with HCT-116 is 29 µM; in the assay on HT-29, 29.5 µM.

On to `C[C@@H]1O[C@@H](O[C@H]2[C@H](O[C@H]3CC[C@@]4(C)C(=CC[C@@H]5[C@@H]4CC[C@@]4(C)[C@H]5C[C@@H]5O[C@@]6(C[C@@H](O)[C@@H](C)CO6)[C@@H](C)[C@@]54O)C3)O[C@H](CO)[C@@H](O)[C@@H]2O[C@@H]2O[C@@H](C)[C@H](O)[C@@H](O)[C@H]2O)[C@H](O)[C@H](O)[C@H]1O` [ARBOREASAPONIN B], for which the IC50 with HCT-116 and in the assay on HT-29 was 100 µM throughout.

On to `C=C1CO[C@]2(O[C@H]3C[C@H]4[C@@H]5CC=C6C[C@@H](O)C[C@@H](O[C@@H]7O[C@H](C)[C@H](O)[C@H](O[C@@H]8O[C@@H](C)[C@H](O)[C@@H](O)[C@H]8O)[C@H]7O[C@@H]7OC[C@@H](O)[C@H](O)[C@H]7O)[C@]6(C)[C@H]5CC[C@]4(C)[C@H]3[C@@H]2C)[C@@H](O)[C@H]1O[C@@H]1OC[C@H](O)[C@H](O)[C@H]1O` [DEISTELIANOSIDE B], for which the IC50 worked out at 21.2 µM with HCT-116 and 70.7 µM with HT-29.

As for `CC(=O)O[C@H]1C(=O)[C@@]2(C)[C@H]([C@H](OC(=O)c3ccccc3)[C@]3(O)C[C@H](OC(=O)[C@H](O)[C@@H](NC(=O)c4ccccc4)c4ccccc4)C(C)=C1C3(C)C)[C@]1(OC(C)=O)CO[C@@H]1C[C@@H]2O` [PACLITAXEL], the IC50 with HCT-116 amounted to 0.00321 µM; with HT-29, 0.0014 µM.

Turning to `C[C@@H]1CC[C@]2(OC1)O[C@H]1C[C@H]3[C@@H]4CC=C5C[C@@H](O[C@@H]6O[C@H](CO)[C@@H](O)[C@H](O[C@@H]7O[C@@H](C)[C@H](O)[C@@H](O)[C@H]7O)[C@H]6O[C@@H]6O[C@@H](C)[C@H](O)[C@@H](O)[C@H]6O)CC[C@]5(C)[C@H]4CC[C@]3(C)[C@@]1(O)[C@@H]2C`, the IC50 worked out at 2.04 µM in the assay on HCT-116 and 1.67 µM in the assay on HT-29.

On to `C[C@@H]1CC[C@@]2(OC1)O[C@H]1C[C@H]3[C@@H]4CC=C5C[C@@H](O[C@@H]6O[C@H](CO)[C@@H](O)[C@H](O[C@@H]7O[C@@H](C)[C@H](O)[C@@H](O)[C@H]7O)[C@H]6O)CC[C@]5(C)[C@H]4CC[C@]3(C)[C@@]1(O)[C@@H]2C` [MANIOSIDE A], for which the IC50 with HCT-116 amounted to 43 µM; in the assay on HT-29, 56.2 µM.

On to `CC(=O)OC[C@H]1O[C@@H](O[C@H]2CC[C@@]3(C)C(=CC[C@@H]4[C@@H]3CC[C@@]3(C)[C@H]4C[C@@H]4O[C@@]5(CC[C@@H](C)CO5)[C@@H](C)[C@@]43O)C2)[C@H](O[C@@H]2O[C@@H](C)[C@H](O)[C@@H](O)[C@H]2O)[C@@H](O[C@@H]2O[C@@H](C)[C@H](O)[C@@H](O)[C@H]2O)[C@@H]1O` [ARBOREASAPONIN A], for which the IC50 with HCT-116 came to 7.6 µM; with HT-29, 8.54 µM.
